Data as given in PubChem BioAssay (NCI).
Several values for one entry are separate records, joined by “and”; a condition that tells them apart may be missing. Equal entries are not always repeated.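 Values below derive from 48-hour exposures of cells grown in 96-well plates, with endpoints linearly interpolated between the two concentrations bracketing the appropriate inhibition level. Abbreviation: GI50, concentration required for 50% inhibition of growth. At the TGI there is no net growth.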

What was measured:
Assay in all cases: inhibition of tumour cell growth, NCI panel, 48 h
786-0 renal = tested on: 786-0 renal
DU-145 prostate = tested on: DU-145 prostate
HCT-116 colon = tested on: HCT-116 colon
HL-60(TB) leukemia = tested on: HL-60(TB) leukemia
K-562 leukemia = tested on: K-562 leukemia
M14 melanoma = tested on: M14 melanoma
RPMI-8226 leukemia = tested on: RPMI-8226 leukemia
SR leukemia = tested on: SR leukemia
T-47D breast = tested on: T-47D breast
TK-10 renal = tested on: TK-10 renal

SMILES	GI50 (786-0 renal) [µM]	TGI (786-0 renal)	GI50 (DU-145 prostate) [µM]	TGI (DU-145 prostate) [µM]	GI50 (HCT-116 colon) [µM]	TGI (HCT-116 colon)	GI50 (HL-60(TB) leukemia) [µM]	TGI (HL-60(TB) leukemia)	GI50 (K-562 leukemia) [µM]	TGI (K-562 leukemia) [µM]	GI50 (M14 melanoma) [µM]	TGI (M14 melanoma) [µM]	GI50 (RPMI-8226 leukemia) [µM]	TGI (RPMI-8226 leukemia)	GI50 (SR leukemia)	TGI (SR leukemia)	GI50 (T-47D breast) [µM]	TGI (T-47D breast) [µM]	GI50 (TK-10 renal) [µM]	TGI (TK-10 renal) [µM]
C=C1C(=O)O[C@H]2[C@H]1CC/C(COC(=O)C(=O)c1c[nH]c3ccc(Cl)cc13)=C\CC[C@@]1(C)O[C@@H]21	1.53	2.93 µM	1.9	4.13	1.65	3.23 µM	1.91	5.09 µM	1.58	6.18	1.59	3.62	0.422	3.29 µM	0.342 µM	12.2 µM	1.62	3.77	1.73	3.2
O=C(Nc1cc(C(F)(F)F)cc(C(F)(F)F)c1)Nc1ccc(OCc2nnc(-c3ccc(Cl)cc3)o2)c(F)c1	2	4.68 µM	3.58	15.2	0.802	3.02 µM	2.85	8.21 µM	2.37	24.3	2.72	11.1	1.02	5.3 µM	2.38 µM	10 µM	1.85	8.04	4.39	33.9
COC(=O)C1=CO[C@@H](OC2OC(CO)C(O)C(O)C2O)[C@@H]2[C@H](C)[C@@H](O)[C@@H](O)[C@]12O (stereo not given in full)	–	> 100 µM	–	> 100	–	> 100 µM	–	> 100 µM	–	–	–	> 100	–	> 100 µM	–	> 100 µM	–	> 100	–	> 100
Cc1[nH]c(=O)nc(N/N=C/c2ccc(Cl)cc2)c1C(=O)Nc1ccc(Cl)cc1	–	47.6 µM	–	> 100	–	17.1 µM	–	> 100 µM	–	> 85.1	–	40.3	–	> 80.2 µM	–	> 100 µM	–	> 85.4	–	56.9
C=C1[C@@H](O)C[C@H]2C(C)(C)C[C@H](Cl)C[C@]2(C)[C@H]1C[C@H](O)[C@H]1CC(=O)NC1=O	0.0149	0.136 µM	0.0166	0.165	< 0.01	0.109 µM	< 0.0107	0.0547 µM	0.0121	–	< 0.0119	0.0492	0.0207	0.0805 µM	0.0142 µM	–	< 0.0113	0.0819	0.0253	0.151
Cc1ccc(S(=O)(=O)NNC(C[N+](=O)[O-])c2ccccc2)cc1 (stereo not given)	–	> 100 µM	–	> 100	–	> 100 µM	–	21.9 µM	–	> 100	–	> 100	–	> 100 µM	–	5.56 µM	–	57.5	–	58.8
CCCC(=O)O[C@]1(C)CC[C@@H]2[C@H]3[C@@H]1[C@@H]1C/C(C)=C\CC[C@](C)(OC(=O)[C@@H]2C)[C@H]3O1	72.6	> 100 µM	74.5	> 100	18.8	38.2 µM	–	–	–	–	32.5	> 100	15.9	37.6 µM	13.2 µM	26.9 µM	> 100	> 100	86.9	> 100
COc1cc2c(c(OC)c1OC)C(=O)c1c-2n(CCCN=[N+]=[N-])c(=O)c2cc([N+](=O)[O-])ccc12	41	> 100 µM	> 100	> 100	36.1	> 100 µM	> 100	> 100 µM	> 100	> 100	> 100	> 100	–	–	16.3 µM	41.9 µM	> 100	> 100	> 100	> 100
CNC12C3C4C1C1C2C3C41C(=O)N[C@H](C(=O)N(C)[C@H](C[C@@H](OC(C)=O)c1nc(C(=O)N[C@@H](Cc2ccccc2)C[C@H](C)C(=O)OC)cs1)C(C)C)C1CC1 (stereo not given in full)	0.577	> 15 µM	0.317	> 3.68	0.215	> 4.1 µM	0.0403	0.135 µM	0.0667	> 15	0.294	–	0.0705	1.89 µM	0.0179 µM	> 7.82 µM	1.38	> 15	0.562	> 15
Clc1ccc(-c2nc(C(Cl)Cl)nc3cc(-c4ccccc4)nn23)cc1	> 50	> 50 µM	0.516	2.02	1.67	> 50 µM	–	–	1.81	> 50	–	–	2.54	> 50 µM	0.645 µM	3.94 µM	1.73	> 50	2.23	> 50
COc1cccc2c1C(=O)c1c(O)c3c(c(O)c1C2=O)C[C@@](O)(C(C)=O)C[C@@H]3OC1CC(O)C(O)C(C)O1 (stereo not given in full)	–	8.12 µM and 19.4 µM	–	8.55	–	3.54 µM and 3.82 µM	–	1.94 µM and 1.2 µM	–	14.5	2.7	18	–	5.5 µM and 8.53 µM	0.089 µM and 0.0887 µM	0.451 µM and 0.497 µM	–	36.9	–	81.3
Cc1ccc(N(/C=C/C(=O)C(F)(F)F)CC(=O)c2ccc(Cl)c(Cl)c2)cc1	13.5	26.3 µM	5.77	20.3	4.3	17.7 µM	–	–	3.37	11.7	4.79	18.6	10.8	27 µM	2.97 µM	12.6 µM	12.2	25.8	12.1	24.5
Cn1ccc2c3c(=O)cc[nH]c3ccc21	> 100	> 100 µM	> 100	> 100	> 100	> 100 µM	> 100	> 100 µM	> 100	> 100	> 100	> 100	> 100	> 100 µM	> 100 µM	> 100 µM	> 100	> 100	> 100	> 100
O=C1C(CO)=C[C@@H](O)[C@H]2O[C@@H]12	–	> 100 µM	–	> 100	–	> 100 µM	–	> 100 µM	–	> 100	–	> 100	–	> 100 µM	–	> 100 µM	–	> 100	–	–
COc1ccc2c(c1)C(=O)c1c-2n(CCCN=[N+]=[N-])c(=O)c2cc(N)ccc12	> 100	> 100 µM	> 100	> 100	> 100	> 100 µM	> 100	> 100 µM	> 100	> 100	> 100	> 100	> 100	> 100 µM	89.6 µM	> 100 µM	> 100	> 100	> 100	> 100
Oc1cc2c(cc1C(c1ccc3c(c1)OCO3)N1CCN(C(c3ccc4c(c3)OCO4)c3cc4c(cc3O)OCO4)CC1)OCO2 (stereo not given)	–	25.8 µM	–	41.3	–	29.1 µM	–	> 100 µM	–	65.1	–	27.5	–	–	–	14.6 µM	–	34.6	–	43.8
CCOc1ccc(NC(=O)c2cc3ccccc3cc2O)cc1	28.4	74.5 µM	> 100	> 100	71.2	> 100 µM	22.3	> 100 µM	52.5	> 100	93.4	> 100	38.9	> 100 µM	22.8 µM	> 100 µM	> 100	> 100	74.8	> 100
O=C(O)c1nnsc1-c1csnn1	–	> 100 µM	–	> 100	–	> 100 µM	–	> 100 µM	–	> 100	–	> 100	–	> 100 µM	–	> 100 µM	–	> 100	–	> 100
N=C1N=C(N)S/C1=C\c1ccc2ncccc2c1	> 25	> 25 µM	> 25	> 25	> 25	> 25 µM	> 25	> 25 µM	> 25	> 25	> 25	> 25	> 25	> 25 µM	> 25 µM	> 25 µM	> 25	> 25	> 25	> 25
CC(=O)N1N=C(c2ccc(Nc3nc(Nc4ccc(F)cc4)nc(Nc4ccc(Cl)cc4)n3)cc2)CC1c1ccc(N(C)C)cc1 (stereo not given)	3.65	13.7 µM	10.2	39	2.42	10.1 µM	5.04	15.7 µM	> 32.4	> 81.9	3.05	10.8	4.15	> 100 µM	2.1 µM	5.18 µM	2.01	16	8.59	31
C[C@@H]1CC[C@@H]2[C@@H]1[C@H](OC(=O)c1ccc3ccccc3c1)[C@]1(C3CCCCC3)C[C@@H](OC(=O)CO)[C@@]2(C)O1	5.41	20 µM	12.2	25.9	6.46	19.6 µM	9.23	30.6 µM	11.4	40.9	13.2	30.2	5.03	22.8 µM	3.4 µM	14.4 µM	3.33	15.1	14.5	31.1
CCCCCCCC(=O)NS(=O)(=O)c1ccccc1	–	> 100 µM	–	> 100	–	> 100 µM	–	> 100 µM	–	> 100	–	> 100	–	> 100 µM	–	> 100 µM	–	> 100	–	> 100
CCOC(=O)C(O)Cc1cnc2ccccc2n1 (stereo not given)	–	> 100 µM	–	> 100	–	> 100 µM	–	–	–	> 100	–	> 100	–	> 100 µM	–	> 100 µM	–	> 100	–	> 100
COc1ccc(C2SCC(=O)N2NC(=O)C(O)c2ccccc2)cc1 (stereo not given)	> 100	> 100 µM	> 100	> 100	> 100	> 100 µM	> 100	> 100 µM	55.5	> 100	> 100	> 100	61.3	> 100 µM	> 100 µM	> 100 µM	> 100	> 100	> 100	> 100
Oc1c(Cl)cc(CN(Cc2cc(Cl)c(O)c(Cl)c2)C2CCCCC2)cc1Cl	–	> 100 µM	–	> 100	–	> 100 µM	–	–	–	> 100	–	> 100	–	> 100 µM	–	> 100 µM	–	> 100	–	> 100
C[n+]1cc2cc3c(cc2c2ccccc21)OCO3	12.4	> 100 µM	4.49	25.9	3.58	> 100 µM	–	–	7.24	> 100	16	> 100	3.39	36.4 µM	3.78 µM	> 100 µM	2.95	14.4	8.33	61.4
O=c1oc2c(cc1-c1ccccc1)C(O)Oc1ccccc1-2 (stereo not given)	11.6	> 100 µM	18.9	> 100	3.9	34.6 µM	2.6	26.8 µM	4.27	> 100	3.32	14.5	–	–	2.89 µM	13.7 µM	4.41	22.3	6.46	> 100
C=C(CN(C)Cc1ccccc1)c1ccc(C(=O)Nc2ccccc2N)cc1	5.21	27.3 µM	1.64	11.9	8.6	21.9 µM	–	–	3.22	> 50	13.4	41.2	1.46	> 50 µM	2.87 µM	> 50 µM	0.611	4.75	7.12	17.8
Nc1cc(N)cc(Cc2ccccc2)c1	–	> 100 µM	–	> 100	–	> 100 µM	–	> 100 µM	–	> 100	–	> 100	–	–	–	> 100 µM	–	> 100	–	> 100
